# Source: patent US11622942B2, “Benzene-1,3,5-tricarboxamide derived ester lipids and uses thereof” (Ohio State Innovation Foundation, priority 2017, dated 2023)
# Test system: Hep3B cells
# Experiment: LLNs-mediated luciferase transfection assay (FLuc mRNA delivery)
# Assay type: cell-based, human
# Settings: FLuc mRNA-loaded LLNs, 6 h transfection, normalized to TT3 (FIG. 1)
# Protocol: The synthesized compounds were formulated with 1,2-dioleoyl-sn-glycero-3-phosphoethanolamine (DOPE), cholesterol, and mRNA. The formulated nanoparticles were evaluated with a luciferase expression assay.
# Benzene-1,3,5-tricarbonyl trichloride (12) was reacted with Boc-protected diamine (13) in order to produce the intermediates (14) (Broaders, K. E. et. al. Chem. Commun. (Cambridge, U. K.) 2011, 47, 665-667). Deprotection of (14) gave compound (11), which underwent reductive amination to afford the desired products compounds #1 to #10 (See Dong, Y. et. al. Proc. Natl. Acad. Sci. U.S.A 2014, 111, 3955-3960). The structures of compounds #1 to #10 were confirmed by ^1H NMR spectroscopy (See FIGS. 12-21) and mass spectrometry (See FIGS. 2-11). […] Meanwhile, particle properties (including size, zeta potential, and entrapment efficiency) are measured using a dynamic light-scattering instrument and a ribogreen assay (Love Kevin, T. et. al. Proc. Nat. Acad. Sci. U.S.A 2010, 107, 1864-1869; Chen, D. et. al. J. Am. Chem. Soc. 2012, 134, 6948-6951).
# Next, delivery efficiency and cytotoxicity of compounds #1 to #10 (LLNs-FLuc mRNA) was evaluated in Hep3B cells, a human hepatoma cell line. […]
smiles,measurement,value
CCCCC(CCC)OC(=O)CCCCCCCCN(CCCCCCCCC(=O)OC(CCC)CCCC)CCCNC(=O)c1cc(C(=O)NCCCN(CCCCCCCCC(=O)OC(CCC)CCCC)CCCCCCCCC(=O)OC(CCC)CCCC)cc(C(=O)NCCCN(CCCCCCCCC(=O)OC(CCC)CCCC)CCCCCCCCC(=O)OC(CCC)CCCC)c1 (stereo not shown) [Compound 10],expression of the firefly luciferase,highest expression
